Literature values, collected in US9662322B2 (TEVA PHARMACEUTICAL INDUSTRIES, LTD., priority 2014, dated 2017).

Settings: cited from earlier work

In the case of `CCN(C(=O)c1c(O)c2c(Cl)cccc2n(C)c1=O)c1ccccc1` [Laquinimod sodium], the Oral bioavailability is listed as “high”.
